Measurements: PubChem BioAssay (NCI)
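96-well plates; 48 h exposure; 5 concentrations. Endpoints by linear interpolation between flanking doses. Not reached: highest tested concentration assigned. TGI denotes the concentration required for complete inhibition of growth.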 Where a SMILES comes first, the peptide text is derived from it. [ ]: non-standard residue; d: D form. ΔPro = O=C(O)[CH]1C=CCN1

Tests used:
Experiment in all cases: NCI anticancer screen, dose series, 48 h
SK-OV-3 ovarian = test system: SK-OV-3 ovarian
KM12 colon = test system: KM12 colon
ACHN renal = test system: ACHN renal
LOX IMVI melanoma = test system: LOX IMVI melanoma
NCI-H23 lung = test system: NCI-H23 lung
NCI-H460 lung = test system: NCI-H460 lung
MDA-N = test system: MDA-N
RPMI-8226 leukemia = test system: RPMI-8226 leukemia
U251 CNS = test system: U251 CNS
HOP-62 NSCLC = test system: HOP-62 NSCLC
K-562 leukemia = test system: K-562 leukemia
OVCAR-5 ovarian = test system: OVCAR-5 ovarian
SR leukemia = test system: SR leukemia

SMILES	TGI (SK-OV-3 ovarian)	TGI (KM12 colon)	TGI (ACHN renal)	TGI (LOX IMVI melanoma)	TGI (NCI-H23 lung)	TGI (NCI-H460 lung)	TGI (MDA-N)	TGI (RPMI-8226 leukemia)	TGI (U251 CNS)	TGI (HOP-62 NSCLC)	TGI (K-562 leukemia)	TGI (OVCAR-5 ovarian)	TGI (SR leukemia)
CN1CCC2(c3ccccc3)CC(=O)/C(=C/c3ccc(Cl)c(Cl)c3)C1C2 (stereo unspecified)	13.6 µM	4.14 µM	3.17 µM	3.34 µM	8.45 µM	5.94 µM	13.9 µM	5.13 µM	3.47 µM	12.3 µM	7.28 µM	6.37 µM	4.74 µM
C=C1CN=C(Nc2ccc(Cl)cc2)S1	> 100 µM	> 100 µM	> 100 µM	> 100 µM	> 100 µM	> 100 µM	> 100 µM	> 100 µM	> 100 µM	> 100 µM	> 100 µM	> 100 µM	> 100 µM
Cc1c(C(=O)c2ccccc2)[n+](=O)c2cc(Cl)c(Cl)cc2n1[O-]	41.4 µM	23 µM	28.5 µM	15.8 µM	11.6 µM	30.9 µM	25.9 µM	19.8 µM	29.9 µM	29.7 µM	17.8 µM	31.8 µM	3.32 µM
CSC1=NN(C(C)=O)C(C(OC(C)=O)C(OC(C)=O)C(OC(C)=O)C(COC(C)=O)OC(C)=O)S1 (stereo unspecified)	> 100 µM	> 100 µM	> 100 µM	> 100 µM	> 100 µM	> 100 µM	> 100 µM	> 100 µM	> 100 µM	> 100 µM	> 100 µM	> 100 µM	> 100 µM
N=c1oc2ccccc2cc1C(=O)Nc1cccc2ccccc12	> 100 µM	> 100 µM	> 100 µM	> 100 µM	> 100 µM	> 100 µM	> 100 µM	> 100 µM	> 100 µM	> 100 µM	> 100 µM	> 100 µM	> 100 µM
O=C(Sc1c(-c2ccccc2)c(=O)n(-c2ccccc2)c(=S)n1-c1ccccc1)c1ccccc1	> 100 µM	> 100 µM	> 100 µM	> 100 µM	> 100 µM	> 100 µM	> 100 µM	> 100 µM	> 100 µM	> 100 µM	> 100 µM	> 100 µM	> 100 µM
COC(=O)c1cc(CC2Cc3cc4c(cc3C2=O)CCC4)cc2c1CCC2 (stereo unspecified)	> 100 µM	> 100 µM	> 100 µM	> 100 µM	> 100 µM	> 100 µM	> 100 µM	> 100 µM	> 100 µM	> 100 µM	> 100 µM	> 100 µM	> 100 µM
CCc1n[nH]c(=O)n1CC	> 100 µM	> 100 µM	> 100 µM	> 100 µM	> 100 µM	> 100 µM	> 100 µM	> 100 µM	> 100 µM	> 100 µM	> 100 µM	> 100 µM	> 100 µM
O=Cc1ccc2ccocc1-2	> 100 µM	> 100 µM	> 100 µM	> 100 µM	> 100 µM	> 100 µM	> 100 µM	> 100 µM	> 100 µM	> 100 µM	> 100 µM	> 100 µM	> 100 µM
c1ccc2sc(SSSc3nc4ccccc4s3)nc2c1	> 100 µM	> 100 µM	> 100 µM	49 µM	> 100 µM	> 100 µM	> 100 µM	> 100 µM	> 100 µM	> 100 µM	> 100 µM	> 100 µM	> 100 µM
C=C1c2nc3ccccc3n2C=C(c2ccccc2)N1c1ccc(Cl)cc1	> 86.7 µM	66.3 µM	38.4 µM	> 100 µM	79.7 µM	> 49.4 µM	> 100 µM	> 85 µM	> 70.3 µM	> 63.3 µM	> 100 µM	> 100 µM	> 100 µM
CN(C)c1ccc(C=Nc2ccc(-c3nc4ccccc4s3)cc2)cc1	> 100 µM	> 100 µM	69 µM	94.8 µM	97.6 µM	93.2 µM	> 100 µM	> 100 µM	> 100 µM	82.8 µM	> 100 µM	> 100 µM	> 100 µM
C=C(C)C1CC[C@@](C)(O)[C@H](C#N)C1 (stereo partly specified)	> 100 µM	> 100 µM	> 100 µM	> 100 µM	> 100 µM	> 100 µM	> 100 µM	> 100 µM	> 100 µM	> 100 µM	> 100 µM	> 100 µM	> 100 µM
O=C(O)C1C=CCN1C(=O)C1C=CCN1C(=O)C1C=CCN1 (stereo unspecified) (H-[ΔPro]-[ΔPro]-[ΔPro]-OH; configuration not given here)	> 100 µM	> 100 µM	> 100 µM	> 100 µM	> 100 µM	> 100 µM	> 100 µM	> 100 µM	> 100 µM	> 100 µM	> 100 µM	> 100 µM	> 100 µM
CC(C)(C)OC(=O)N(O)[C@@H]1CC[C@H](n2cnc3c(N)ncnc32)C1	> 100 µM	> 100 µM	> 100 µM	> 100 µM	> 100 µM	> 100 µM	> 100 µM	> 100 µM	> 100 µM	> 100 µM	> 100 µM	> 100 µM	> 100 µM
COc1ccccc1-n1nnc2c(N)nc(N)nc21	> 100 µM	> 100 µM	> 100 µM	> 100 µM	> 100 µM	> 100 µM	> 100 µM	> 100 µM	> 100 µM	> 100 µM	> 100 µM	> 100 µM	> 100 µM
O=C1CSC(c2ccccc2O)N1c1ccc2c(c1)Oc1c(Cl)c3c(c(Cl)c1=N2)Oc1cc(N2C(=O)CSC2c2ccccc2O)ccc1N=3 (stereo unspecified)	71.3 µM	> 100 µM	55.1 µM	> 100 µM	> 100 µM	> 100 µM	> 100 µM	> 100 µM	65 µM	> 100 µM	> 100 µM	> 100 µM	> 100 µM
